According to PubChem BioAssay (NCI):
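Cells were grown in 96-well plates and exposed to each compound for 48 hours at five concentrations; endpoints were interpolated linearly between bracketing concentrations, or set to the highest concentration if not reached. Here, GI50 denotes the concentration required for 50% inhibition of growth. TGI marks complete inhibition of growth.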

Experiments:
Assay in all cases: NCI tumour cell line growth inhibition, 48 h
786-0 renal = test system: 786-0 renal
A498 renal = test system: A498 renal
A549 NSCLC = test system: A549 NSCLC
ACHN renal = test system: ACHN renal
BT-549 breast = test system: BT-549 breast
CCRF-CEM leukemia = test system: CCRF-CEM leukemia
COLO 205 colon = test system: COLO 205 colon
DU-145 prostate = test system: DU-145 prostate
EKVX NSCLC = test system: EKVX NSCLC
HCC-2998 colon = test system: HCC-2998 colon
HCT-116 colon = test system: HCT-116 colon
HCT-15 colon = test system: HCT-15 colon
HL-60(TB) leukemia = test system: HL-60(TB) leukemia
HOP-62 NSCLC = test system: HOP-62 NSCLC
HT29 colon = test system: HT29 colon
IGROV1 ovarian = test system: IGROV1 ovarian
K-562 leukemia = test system: K-562 leukemia
KM12 colon = test system: KM12 colon
LOX IMVI melanoma = test system: LOX IMVI melanoma
M14 melanoma = test system: M14 melanoma
MALME-3M melanoma = test system: MALME-3M melanoma
MCF7 breast = test system: MCF7 breast
MDA-MB-231 breast = test system: MDA-MB-231 breast
MDA-MB-435 = test system: MDA-MB-435
MOLT-4 leukemia = test system: MOLT-4 leukemia
NCI-H226 lung = test system: NCI-H226 lung
NCI-H23 lung = test system: NCI-H23 lung
NCI-H460 lung = test system: NCI-H460 lung
NCI-H522 lung = test system: NCI-H522 lung
NCI/ADR-RES ovarian = test system: NCI/ADR-RES ovarian
OVCAR-3 ovarian = test system: OVCAR-3 ovarian
OVCAR-4 ovarian = test system: OVCAR-4 ovarian
OVCAR-5 ovarian = test system: OVCAR-5 ovarian
OVCAR-8 ovarian = test system: OVCAR-8 ovarian
PC-3 prostate = test system: PC-3 prostate
RPMI-8226 leukemia = test system: RPMI-8226 leukemia
RXF 393 renal = test system: RXF 393 renal
SF-268 CNS = test system: SF-268 CNS
SF-295 CNS = test system: SF-295 CNS
SF-539 CNS = test system: SF-539 CNS
SK-MEL-2 melanoma = test system: SK-MEL-2 melanoma
SK-MEL-28 melanoma = test system: SK-MEL-28 melanoma
SK-MEL-5 melanoma = test system: SK-MEL-5 melanoma
SK-OV-3 ovarian = test system: SK-OV-3 ovarian
SN12C renal = test system: SN12C renal
SNB-19 CNS = test system: SNB-19 CNS
SNB-75 CNS = test system: SNB-75 CNS
SR leukemia = test system: SR leukemia
SW-620 colon = test system: SW-620 colon
T-47D breast = test system: T-47D breast
TK-10 renal = test system: TK-10 renal
U251 CNS = test system: U251 CNS
UACC-257 melanoma = test system: UACC-257 melanoma
UACC-62 melanoma = test system: UACC-62 melanoma
UO-31 renal = test system: UO-31 renal

`CC1(C)N=C(N)N=C(N)N1c1ccc(OCc2ccc(S(=O)(=O)F)c(Cl)c2)c(Cl)c1` was tested, and the GI50 (786-0 renal) was 0.814 µM, the TGI (786-0 renal) was > 100 µM and the GI50 (A498 renal) was > 100 µM. The TGI (A498 renal) was > 100 µM, the GI50 (A549 NSCLC) was 0.499 µM and the TGI (A549 NSCLC) was > 100 µM. The GI50 (ACHN renal) was 5.48 µM, the TGI (ACHN renal) was > 100 µM and the GI50 (BT-549 breast) was 18.9 µM. For the same compound, the TGI (BT-549 breast) was > 100 µM, the GI50 (CCRF-CEM leukemia) was 1.06 µM and the TGI (CCRF-CEM leukemia) was > 100 µM. The GI50 (COLO 205 colon) was 5.74 µM, the TGI (COLO 205 colon) was > 100 µM and the GI50 (DU-145 prostate) was 4 µM. For the same compound, the TGI (DU-145 prostate) was > 100 µM, the GI50 (EKVX NSCLC) was > 100 µM and the TGI (EKVX NSCLC) was > 100 µM. The GI50 (HCC-2998 colon) was 4.97 µM, the TGI (HCC-2998 colon) was > 100 µM and the GI50 (HCT-116 colon) was 0.51 µM. The TGI (HCT-116 colon) was > 100 µM, the GI50 (HCT-15 colon) was 0.586 µM and the TGI (HCT-15 colon) was > 100 µM. The GI50 (HL-60(TB) leukemia) was 1.35 µM, the TGI (HL-60(TB) leukemia) was > 100 µM and the GI50 (HOP-62 NSCLC) was 7.93 µM. The TGI (HOP-62 NSCLC) was > 100 µM, the GI50 (HT29 colon) was 0.845 µM and the TGI (HT29 colon) was > 100 µM. For the same compound, the GI50 (IGROV1 ovarian) was 0.123 µM, the TGI (IGROV1 ovarian) was > 100 µM and the GI50 (K-562 leukemia) was 0.448 µM. For the same compound, the TGI (K-562 leukemia) was > 100 µM, the GI50 (KM12 colon) was 3.35 µM and the TGI (KM12 colon) was > 100 µM. For the same compound, the GI50 (LOX IMVI melanoma) was 0.448 µM, the TGI (LOX IMVI melanoma) was > 100 µM and the GI50 (M14 melanoma) was 1.52 µM. The TGI (M14 melanoma) was > 100 µM, the GI50 (MALME-3M melanoma) was 1.97 µM and the TGI (MALME-3M melanoma) was > 100 µM. For the same compound, the GI50 (MCF7 breast) was 0.641 µM, the TGI (MCF7 breast) was > 100 µM and the GI50 (MDA-MB-231 breast) was > 100 µM. For the same compound, the TGI (MDA-MB-231 breast) was > 100 µM, the GI50 (MDA-MB-435) was 0.558 µM and the TGI (MDA-MB-435) was > 100 µM. For the same compound, the GI50 (MOLT-4 leukemia) was 3.59 µM, the TGI (MOLT-4 leukemia) was > 100 µM and the GI50 (NCI-H226 lung) was 9.72 µM. For the same compound, the TGI (NCI-H226 lung) was > 100 µM, the GI50 (NCI-H23 lung) was 2.09 µM and the TGI (NCI-H23 lung) was > 100 µM. For the same compound, the GI50 (NCI-H460 lung) was 0.426 µM, the TGI (NCI-H460 lung) was > 100 µM and the GI50 (NCI-H522 lung) was 3.28 µM. For the same compound, the TGI (NCI-H522 lung) was > 100 µM, the GI50 (NCI/ADR-RES ovarian) was 60 µM and the TGI (NCI/ADR-RES ovarian) was > 100 µM. The GI50 (OVCAR-3 ovarian) was 4.69 µM, the TGI (OVCAR-3 ovarian) was > 100 µM and the GI50 (OVCAR-4 ovarian) was 17.5 µM. The TGI (OVCAR-4 ovarian) was > 100 µM, the GI50 (OVCAR-5 ovarian) was > 100 µM and the TGI (OVCAR-5 ovarian) was > 100 µM. The GI50 (OVCAR-8 ovarian) was 0.735 µM, the TGI (OVCAR-8 ovarian) was > 100 µM and the GI50 (PC-3 prostate) was 0.502 µM. For the same compound, the TGI (PC-3 prostate) was > 100 µM, the GI50 (RPMI-8226 leukemia) was > 100 µM and the TGI (RPMI-8226 leukemia) was > 100 µM. For the same compound, the GI50 (RXF 393 renal) was 18.7 µM, the TGI (RXF 393 renal) was > 100 µM and the GI50 (SF-268 CNS) was 2.85 µM. The TGI (SF-268 CNS) was > 100 µM, the GI50 (SF-295 CNS) was 3.88 µM and the TGI (SF-295 CNS) was > 100 µM. The GI50 (SF-539 CNS) was 4.57 µM, the TGI (SF-539 CNS) was > 100 µM and the GI50 (SK-MEL-2 melanoma) was > 100 µM. The TGI (SK-MEL-2 melanoma) was > 100 µM, the GI50 (SK-MEL-28 melanoma) was 8.61 µM and the TGI (SK-MEL-28 melanoma) was > 100 µM. The GI50 (SK-MEL-5 melanoma) was 1.03 µM, the TGI (SK-MEL-5 melanoma) was > 100 µM and the GI50 (SK-OV-3 ovarian) was > 100 µM. The TGI (SK-OV-3 ovarian) was > 100 µM, the GI50 (SN12C renal) was 0.558 µM and the TGI (SN12C renal) was > 100 µM. The GI50 (SNB-19 CNS) was 6.76 µM, the TGI (SNB-19 CNS) was > 100 µM and the GI50 (SNB-75 CNS) was 4.92 µM. For the same compound, the TGI (SNB-75 CNS) was > 100 µM, the GI50 (SR leukemia) was 0.432 µM and the TGI (SR leukemia) was > 100 µM. For the same compound, the GI50 (SW-620 colon) was 0.424 µM, the TGI (SW-620 colon) was > 100 µM and the GI50 (T-47D breast) was 77.7 µM. The TGI (T-47D breast) was > 100 µM, the GI50 (TK-10 renal) was 59.2 µM and the TGI (TK-10 renal) was > 100 µM. For the same compound, the GI50 (U251 CNS) was 2.9 µM, the TGI (U251 CNS) was > 100 µM and the GI50 (UACC-257 melanoma) was 2.38 µM. The TGI (UACC-257 melanoma) was > 100 µM, the GI50 (UACC-62 melanoma) was 0.74 µM and the TGI (UACC-62 melanoma) was > 100 µM. The GI50 (UO-31 renal) was 46 µM and the TGI (UO-31 renal) was > 100 µM.
